Reference: patent US20110213021A1, “COMPOSITIONS AND METHODS FOR TREATING NOS-ASSOCIATED DISEASES” (Indigene Pharmaceuticals, Inc., priority 2008, published 2011)

Tests used:
rat liver microsomes = assay: lipid peroxidation: ascorbic acid-induced production of malonaldehyde in liver microsomes; format: biochemical; conditions: 0.1 mM ascorbic acid, 20 min at 37° C.
Protocol: Furthermore, the effect on lipid peroxidation quantified by the measurement of ascorbic acid-induced production of malonaldehyde in rat liver microsomes. Specifically, homogenates of liver microsomes (150 μg) are pre-incubated for 5 min at 37° C. with the test salt (as a 10-fold concentrated solution in H2O), reference compound or water (control) in a buffer containing 300 mM NaCl, 0.1 mM FeCl3 and 8 mM NaH2PO4/Na2HPO4 (pH 7.4). Thereafter, the reaction is initiated by the addition of 0.1 mM ascorbic acid and the mixture is incubated for 20 min at 37° C. For basal control measurements, ascorbic acid is omitted from the incubation medium. These measurements are also used to detect any compound interference with the photometric detection at the selected wavelength. Following incubation, the reaction is stopped by the addition of 5 mM EDTA/NaOH. […] The amount of lipid peroxides present in the supernatant is quantified by measuring the absorbance at λ=532 nm using a spectrophotometer. This assay may be performed using the standard inhibitory reference compound N-propyl gallate, which may be tested in each experiment at several concentrations to obtain an inhibition curve from which its IC50 value is calculated. […]

human HL-60 cells = assay: superoxide O2- secretion from PMA-stimulated HL-60 cells (cytochrome C reduction); format: cell-based; conditions: 0.25 h, 30 nM PMA-stimulated HL-60 cells, 15 min at 37° C.
Protocol: In addition, the effect on superoxide O2 secretion was measured. This assay quantifies the secretion of superoxide O2^− from phorbol 12-mysirate 13-acetate (PMA)-stimulated human HL-60 cells, by the measurement of cytochrome C reduction. The test salt (as a 10-fold concentrated solution in H2O), reference compound or water (control) are pre-incubated for 15 min at 37° C. with HL-60 cells (5×10^5 cells) suspended in a buffer containing 137 mM NaCl, 2.68 mM KCl, 0.9 mM CaCl2, 0.5 mM MgCl2, 8.1 mM Na2HPO4, 1.47 mM KH2PO4 (pH 7.4 ) and 19 μM cytochrome C. The absorbance is then measured at λ=550 nm using a spectrophotometer to detect any compound interference with the photometric detection at this wavelength. Thereafter, the reaction is initiated by the addition of 30 nM PMA and the mixture is incubated for 15 min at 37° C. in the dark. For basal control measurements, the incubation medium also contains 275 U/ml superoxyde dismutase (SOD) to catalyze the destruction of superoxide O2^−. […] The absorbance is then measured at λ=550 nm and the activity is determined by subtracting signal measured in the presence of SOD from that measured in its absence. This assay may be performed using the standard inhibitory reference compound, diphenyleneiodonium, which may be tested in each experiment at several concentrations to obtain an inhibition curve from which its IC50 value is calculated. […]

inducible NOS = molecular target: T1, inducible NOS (Mus musculus, UniProt P29477); assay: inducible NOS activity assay (formation of nitrite from arginine, Griess reagent); format: biochemical
T1 construct: using an enzyme isolated from LPS-+INFγ-treated mouse macrophages; endogenous in cells; host or cells: LPS + IFN-gamma-treated mouse macrophages (enzyme isolated from the cells)
Protocol: First, an inducible NOS activity assay was performed on the recrystallized salt of Example 2. This assay measures the formation of nitrite from arginine using an enzyme isolated from LPS-+INFγ-treated mouse macrophages. In this assay, the test salt (as a 10-fold concentrated solution in H2O), reference compound or water (control) are incubated for 180 min at 37° C. with the enzyme (0.5 U) in a buffer containing 40 mM Tris-HCl (pH 8.0), 0.5 mM NADPH, 4 μM FAD, 12 μM BH4, 3 mM DTT and 0.1 mM L-arginine. For basal control measurements, the enzyme is omitted from the incubation medium. Following incubation, Griess reagent containing 0.05% naphtylene diamine, 0.5% sulfanilamide and 2.5% orthophosphoric acid is added and the samples are incubated for 10 min at 22° C. The amount of nitrite produced is then quantified with a microplate reader (Spectrafluorplus, Tecan) by measuring the absorbance at λ=550 nm. The results are expressed as IC50 in M. This assay may be performed using the standard inhibitory reference compound, I400 W, which may be tested in each experiment at several concentrations to obtain an inhibition curve from which its IC50 value is calculated. Further information regarding this protocol may be found in Tayeh and Marletta (1989), Macrophage oxidation of L-arginine to nitric oxide, nitrite, and nitrate, J. Biol. Chem., 264: 19654.

CC(C)=NN=C(N)N
IC50 (rat liver microsomes): 1800 µM | IC50 (human HL-60 cells): 310 µM | IC50 (inducible NOS; enzyme isolated from LPS-+INFγ-treated mouse macrophages, 180 min at 37° C., 0.1 mM L-arginine): 37 µM | nH, inducible NOS activity (inducible NOS; same inhibition curve as the IC50): 0.9
